Measurements reported in patent US6737383B1, “Herbicidal oxadiazolidines” (priority 1999, dated 2004).

Columns and labels:
giant foxtail = assay: Test B pre/postemergence giant foxtail; type: in vivo, Setaria faberii
Outline: (§1)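 Response is a visual 0-to-10 score relative to untreated plants, where 0 means no effect and 10 means complete control, taken twelve to sixteen days after application. Treatments went onto soil at planting and onto foliage of 1- to 4-leaf plants, using a surfactant-containing non-phytotoxic solvent.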

velvetleaf = assay: Test B pre/postemergence velvetleaf; type: in vivo, Abutilon theophrasti
Outline: as §1

rape = assay: Test B pre/postemergence rape; type: in vivo, Brassica napus
Outline: as §1

morningglory = assay: Test B pre/postemergence morningglory; type: in vivo, Ipomoea hederacea
Outline: as §1

pigweed = assay: Test B pre/postemergence pigweed; type: in vivo, Amaranthus retroflexus
Outline: as §1

wheat = assay: Test B pre/postemergence wheat; type: in vivo, Triticum aestivum
Outline: as §1

bedstraw = assay: Test B pre/postemergence bedstraw; type: in vivo, Galium aparine
Outline: as §1

wild oat = assay: Test B pre/postemergence wild oat; type: in vivo, Avena fatua
Outline: as §1

purple nutsedge = assay: Test B pre/postemergence purple nutsedge; type: in vivo, Cyperus rotundus
Outline: as §1

cocklebur = assay: Test B pre/postemergence cocklebur; type: in vivo, Xanthium strumarium
Outline: as §1

blackgrass = assay: Test B pre/postemergence blackgrass; type: in vivo, Alopecurus myosuroides
Outline: as §1

surinam grass = assay: Test B pre/postemergence surinam grass; type: in vivo, Brachiaria decumbens
Outline: as §1

sugar beet = assay: Test B pre/postemergence sugar beet; type: in vivo, Beta vulgaris
Outline: as §1

soybean = assay: Test B pre/postemergence soybean; type: in vivo, Glycine max
Outline: as §1

crabgrass = assay: Test B pre/postemergence crabgrass; type: in vivo, Digitaria sanguinalis
Outline: as §1

corn = assay: Test B pre/postemergence corn; type: in vivo, Zea mays
Outline: as §1

[1] = Postemergence, Rate 62 g/ha, scale 0 to 10, 0 is no effect, 10 is complete control
[2] = Postemergence, Rate 125 g/ha, scale of 0 to 10 where 0 is no effect and 10 is complete control
[3] = Preemergence, Rate 62 g/ha, scale of 0 to 10 where 0 is no effect and 10 is complete control
[4] = Preemergence, Rate 125 g/ha, scale of 0 to 10 where 0 is no effect and 10 is complete control
[5] = Preemergence, Rate 250 g/ha, scale 0 (no effect) to 10 (complete control)
[6] = Rate 250 g/ha, Postemergence, scale 0 to 10, 0 is no effect, 10 is complete control
[7] = Rate 500 g/ha, Postemergence, scale 0 to 10, 0 is no effect, 10 is complete control
[8] = Preemergence, Rate 500 g/ha, scale of 0 to 10 where 0 is no effect and 10 is complete control

## CC(C)N(C(=O)n1oc(=O)n(CCCCCl)c1=O)c1ccc(F)cc1 [Compound 712]
Giant foxtail; [1]
  Plant response rating, Giant foxtail: 3
Giant foxtail; [2]
  Giant foxtail plant response rating: 8
Giant foxtail; [3]
  Giant foxtail plant response rating: 10
Giant foxtail; [4]
  Plant response rating, Giant foxtail: 10
Giant foxtail; [5]
  Giant foxtail plant response rating: 10
Giant foxtail; [6]
  Giant foxtail plant response rating: 8
Giant foxtail; [7]
  Giant foxtail plant response rating: 9
velvetleaf; [1]
  Plant response rating, Velvetleaf: 0
velvetleaf; [2]
  Velvetleaf plant response rating: 5
velvetleaf; [3]
  Velvetleaf plant response rating: 0
velvetleaf; [4]
  Plant response rating, Velvetleaf: 3
velvetleaf; [5]
  Velvetleaf plant response rating: 3
velvetleaf; [6]
  Velvetleaf plant response rating: 6
velvetleaf; [7]
  Velvetleaf plant response rating: 6
rape; [1]
  Plant response rating, Rape: 2
rape; [2]
  Rape plant response rating: 3
rape; [3]
  Rape plant response rating: 0
rape; [4]
  Plant response rating, Rape: 2
rape; [5]
  Rape plant response rating: 7
rape; [6]
  Rape plant response rating: 4
rape; [7]
  Rape plant response rating: 4
morningglory; [1]
  Plant response rating, Morningglory: 3
morningglory; [2]
  Morningglory plant response rating: 4
morningglory; [3]
  Morningglory plant response rating: 0
morningglory; [4]
  Plant response rating, Morningglory: 0
morningglory; [5]
  Morningglory plant response rating: 0
morningglory; [6]
  Morningglory plant response rating: 10
morningglory; [7]
  Morningglory plant response rating: 10
pigweed; [1]
  Plant response rating, Redroot pigweed: 3
pigweed; [3]
  Redroot pigweed plant response rating: 6
pigweed; [4]
  Plant response rating, Redroot pigweed: 8
pigweed; [5]
  Redroot pigweed plant response rating: 8
pigweed; [6]
  Redroot pigweed plant response rating: 6
pigweed; [7]
  Redroot pigweed plant response rating: 8
wheat; [1]
  Plant response rating, Wheat: 0
wheat; [2]
  Wheat plant response rating: 0
wheat; [3]
  Wheat plant response rating: 0
wheat; [4]
  Plant response rating, Wheat: 0
wheat; [5]
  Wheat plant response rating: 0
wheat; [6]
  Wheat plant response rating: 0
wheat; [7]
  Wheat plant response rating: 5
bedstraw; [3]
  Bedstraw plant response rating: 0
bedstraw; [4]
  Plant response rating, Bedstraw: 0
bedstraw; [5]
  Bedstraw plant response rating: 2
bedstraw; [8]
  Plant response rating, Bedstraw: 5
bedstraw; [7]
  Bedstraw plant response rating: 8
Wild oat; [1]
  Plant response rating, Wild oats: 0
Wild oat; [2]
  Wild oats plant response rating: 0
Wild oat; [3]
  Wild oats plant response rating: 0
Wild oat; [4]
  Plant response rating, Wild oats: 3
Wild oat; [5]
  Wild oats plant response rating: 3
Wild oat; [6]
  Wild oats plant response rating: 0
Wild oat; [7]
  Wild oats plant response rating: 3
Purple nutsedge; [1]
  Plant response rating, Nutsedge: 0
Purple nutsedge; [2]
  Nutsedge plant response rating: 0
Purple nutsedge; [3]
  Nutsedge plant response rating: 0
Purple nutsedge; [4]
  Plant response rating, Nutsedge: 0
Purple nutsedge; [5]
  Nutsedge plant response rating: 0
Purple nutsedge; [6]
  Nutsedge plant response rating: 0
Purple nutsedge; [7]
  Nutsedge plant response rating: 0
cocklebur; [1]
  Plant response rating, Cocklebur: 0
cocklebur; [2]
  Cocklebur plant response rating: 0
cocklebur; [3]
  Cocklebur plant response rating: 0
cocklebur; [4]
  Plant response rating, Cocklebur: 0
cocklebur; [5]
  Cocklebur plant response rating: 0
cocklebur; [8]
  Plant response rating, Cocklebur: 0
cocklebur; [6]
  Cocklebur plant response rating: 3
cocklebur; [7]
  Cocklebur plant response rating: 3
blackgrass; [1]
  Plant response rating, Blackgrass: 0
blackgrass; [2]
  Blackgrass plant response rating: 0
blackgrass; [3]
  Blackgrass plant response rating: 3
blackgrass; [4]
  Plant response rating, Blackgrass: 6
blackgrass; [5]
  Blackgrass plant response rating: 8
blackgrass; [8]
  Plant response rating, Blackgrass: 9
blackgrass; [6]
  Blackgrass plant response rating: 5
blackgrass; [7]
  Blackgrass plant response rating: 6
Surinam grass; [1]
  Plant response rating, B. signalgrass: 0
Surinam grass; [2]
  B. signalgrass plant response rating: 0
Surinam grass; [3]
  B. signalgrass plant response rating: 3
Surinam grass; [4]
  Plant response rating, B. signalgrass: 5
Surinam grass; [5]
  B. signalgrass plant response rating: 8
Surinam grass; [8]
  Plant response rating, B. signalgrass: 8
Surinam grass; [6]
  B. signalgrass plant response rating: 4
Surinam grass; [7]
  B. signalgrass plant response rating: 8
Sugar beet; [1]
  Plant response rating, Sugarbeets: 1
Sugar beet; [2]
  Sugarbeets plant response rating: 3
Sugar beet; [3]
  Sugarbeets plant response rating: 0
Sugar beet; [4]
  Plant response rating, Sugarbeets: 4
Sugar beet; [5]
  Sugarbeets plant response rating: 7
Sugar beet; [7]
  Sugarbeets plant response rating: 6
soybean; [1]
  Plant response rating, Soybean: 2
soybean; [2]
  Soybean plant response rating: 5
soybean; [3]
  Soybean plant response rating: 0
soybean; [4]
  Plant response rating, Soybean: 0
soybean; [5]
  Soybean plant response rating: 0
soybean; [6]
  Soybean plant response rating: 5
soybean; [7]
  Soybean plant response rating: 5
crabgrass; [1]
  Plant response rating, Crabgrass: 1
crabgrass; [2]
  Crabgrass plant response rating: 4
crabgrass; [3]
  Crabgrass plant response rating: 8
crabgrass; [4]
  Plant response rating, Crabgrass: 9
crabgrass; [5]
  Crabgrass plant response rating: 10
crabgrass; [6]
  Crabgrass plant response rating: 9
crabgrass; [7]
  Crabgrass plant response rating: 9
corn; [1]
  Plant response rating, Corn: 0
corn; [2]
  Corn plant response rating: 0
corn; [3]
  Corn plant response rating: 0
corn; [4]
  Plant response rating, Corn: 0
corn; [5]
  Corn plant response rating: 0
corn; [6]
  Corn plant response rating: 0
corn; [7]
  Corn plant response rating: 0
